Data set [1] deals with human ciliated sinonasal air-liquid-interface (ALI) cells.
Data set [2] has as its system human H1N1 influenza A strain PR8. In kind it is cell-based. The following applies: 0.1% quinine in 0.9% sodium chloride from 1 h post infection, daily, 72 hrs.
Data set [3] has as its system nitric oxide (NO). In words: NO production after nasal instillation in ferrets (nasal wash). In kind it is in vivo, ferret.
Data set [4] has as its system SARS-CoV-2 (UPenn/Philadelphia strain). In words: Human sinonasal ALI infection with SARS-CoV-2, nucleocapsid staining and quantitative fluorescence imaging. The following applies: 1 mg/mL quinine sulfate, 48 hrs; average of two measurements.
For data set [5], the system named is airway inflammation. The following applies: murine model; cited from earlier work.

Read-outs that look alike come from different tables or passages of the source.

Turning to `C=C[C@H]1C[N@@]2CC[C@H]1C[C@H]2[C@H](O)c1ccnc2ccc(OC)cc12` [quinine], the cell viability result in data set [1] was “remained viable and visually healthy”. For the same compound, the “transcripts for both the NP and IAV-M genes” value in data set [2] (subject A cells, MOI of 1) is “lesser relative reduction”; in data set [2] (subject B (more mature) ALI culture), “marked relative reduction”. The “NO in nasal wash” value was determined as 6.64 ng/mL in data set [3] (5 min after 200 μL of 1 mg/mL solution intranasal), 6.42 ng/mL in data set [3] (10 min after 200 μL of 1 mg/mL solution intranasal) and 6.52 ng/mL in data set [3] (15 min after 200 μL of 1 mg/mL solution intranasal). For the same compound, the “Quinine Rx (% infected)” value in data set [4] turned out to be 2.32%. Further, in data set [5], the “airway inflammation (BAL, histology, PFTs)” value was “reduce airway inflammation”.

These data come from patent US20230144186A1 (The Trustees of the University of Pennsylvania, priority 2020, published 2023).
